These results are taken from publication PMC2713172 (Biochemistry, 2008).

For data set [1], the target named is T1, CYP2C9 F100L mutant (Homo sapiens, UniProt P11712, F100L).
In data set [2] the target is T2, CYP2C9 F114L mutant (Homo sapiens, UniProt P11712, F114L).
Data set [3] concerns the target T3, CYP2C9 F476L mutant (Homo sapiens, UniProt P11712, F476L). Conditions: F476L.
The target in data set [4] is T4, CYP2C9 F114W mutant (Homo sapiens, UniProt P11712, F114W).
For data set [5], the target named is T5, CYP2C9 F476W mutant (Homo sapiens, UniProt P11712, F476W).
The target in data set [6] is T6, CYP2C9 F114L/F476L double mutant (Homo sapiens, UniProt P11712, F114L/F476L).
The target of data set [7] is T7, wild-type CYP2C9 (Homo sapiens, UniProt P11712).
Data set [8] has as its target T1, CYP2C9 F100L mutant. This is another data set of the same source.
The target of data set [9] is T2, CYP2C9 F114L mutant. The source holds these as a separate data set.
Data set [10] concerns the target T3, CYP2C9 F476L mutant.
Data set [11] addresses T4, CYP2C9 F114W mutant. The source holds these as a separate data set.
Data set [12] has as its target T5, CYP2C9 F476W mutant. This is another data set of the same source.
Data set [13] addresses T6, CYP2C9 F114L/F476L double mutant. This is another data set of the same source.
For data set [14], the target named is CYP2C9 F114W/F476W double mutant (Homo sapiens, UniProt P11712, F114W/F476W).
The target in data set [15] is T7, wild-type CYP2C9. The source holds these as a separate data set.
The target of data set [16] is T7, wild-type CYP2C9. Conditions: wild-type CYP2C9.
A further data set has as its system CYP2C9. Conditions: structure 1OG5; cited from earlier work.
Data set [17] concerns the target T7, wild-type CYP2C9. Conditions: WT.
Substrate in data set [18]: CC(=O)C[C@@H](c1ccccc1)c1c(O)c2ccccc2oc1=O
Kind of data set: purified protein, by the assay type. Conditions: other: WT; substrate hydroxylation; 37.0 °C.

For the molecule `CC(=O)C[C@@H](c1ccccc1)c1c(O)c2ccccc2oc1=O` [(S)-warfarin, (S)-Warfarin], the “percent of wild-type kcat/Km” value at CYP2C9 F100L mutant [1] worked out at 133%; at CYP2C9 F114L mutant [2], 2%; on CYP2C9 F476L mutant [3] it was 2%; at CYP2C9 F114W mutant [4], 83%; at CYP2C9 F476W mutant [5], 500%; in data set [6] it was 0.4%. Moreover, the “percent of wild-type kcat/Km” value on wild-type CYP2C9 [17] came out at 100%. Besides, the “ΔAmax (maximum observed difference 390–420 nm)” value is recorded as 5.3 ± 0.1 ×10^−3 at wild-type CYP2C9 [7]; 6.5 ± 0.06 ×10^−3 at CYP2C9 F100L mutant [8]; 10 ± 0.07 ×10^−3 at CYP2C9 F114L mutant [9]; 11 ± 0.2 ×10^−3 at CYP2C9 F476L mutant [10]; 12 ± 0.3 ×10^−3 on CYP2C9 F114W mutant [11]; 9.3 ± 0.1 ×10^−3 at CYP2C9 F476W mutant [12]. Also, the results for the “ΔAmax (maximum observed difference 390–420 nm)” value in data set [13] and in data set [14] were 15 ± 0.3 ×10^−3 and 12 ± 0.2 ×10^−3, respectively. The “percent of wild-type ΔA/K” value on wild-type CYP2C9 [7] (Wild-type) came to 100%; at CYP2C9 F100L mutant [8] (F100L), 262%; at CYP2C9 F114L mutant [9] (F114L), 139%; at CYP2C9 F114W mutant [11] (F114W), 636%; at CYP2C9 F476W mutant [12] (F476W), 225%; in data set [13] (F114L/F476L), 75%. Moreover, in data set [14] (F114W/F476W), the “percent of wild-type ΔA/K” value worked out at 303%. For the same molecule, the “distance from the heme to all ring protons” value on wild-type CYP2C9 [15] is 6–7 Å. For the same molecule, the “distance from the heme to the acetonyl methyl group” value on wild-type CYP2C9 [15] is ~ 9 Å. Also, the “coupling of hydroxylation to NADPH consumption” value on wild-type CYP2C9 [16] was ~ 4%. Also, in the data set with CYP2C9, the “distance above the heme in crystal structure” value is listed as ~ 10 Å.

B1: wild-type CYP2C9 (Homo sapiens) (protein)
chain: MALLLAVFLCLSCLLLLSLWRQSSGRGKLPPGPTPLPVIGNILQIGIKDISKSLTNLSKVYGPVFTLYFGLKPIVVLHGYEAVKEALIDLGEEFSGRGIFPLAERANRGFGIVFSNGKKWKEIRRFSLMTLRNFGMGKRSIEDRVQEEARCLVEELRKTKASPCDPTFILGCAPCNVICSIIFHKRFDYKDQQFLNLMEKLNENIKILSSPWIQICNNFSPIIDYFPGTHNKLLKNVAFMKSYILEKVKEHQESMDMNNPQDFIDCFLMKMEKEKHNQPSEFTIESLENTAVDLFGAGTETTSTTLRYALLLLLKHPEVTAKVQEEIERVIGRNRSPCMQDRSHMPYTDAVVHEVQRYIDLLPTSLPHAVTCDIKFRNYLIPKGTTILISLTSVLHDNKEFPNPEMFDPHHFLDEGGNFKKSKYFMPFSAGKRICVGEALAGMELFLFLTSILQNFNLKSLVDPKNLDTTPVVNGFASVPPFYQLCFIPV
One may read the Km as the concentration of substrate that gives half-maximal velocity. The term kcat denotes the maximal rate divided by the concentration of active sites. In the case of B1, in [18], the Michaelis constant (Km) came out at 4.1 ± 0.3 µM, the kcat worked out at 0.00417 ± 6.7e-05 s⁻¹ and the kcat/Km is on record as 0.06 (100) min^−1 μM^−1.
